From PubChem BioAssay AID248 (DTP/NCI, 2004)
Values joined by “and” are separate entries in the source; they are usually repeats but may differ in a detail not shown here. Equal values may be shown once. Inconclusive results and toxic doses are left out.

Tested on: L1210 leukemia ip in BDF1 mice, survival T/C
Assay: NCI In Vivo Anticancer Drug Screen. Data for tumor model L1210 Leukemia (intraperitoneal) in B6D2F1 (BDF1) mice
Conditions: higher = longer survival
In short: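 Tumor was transplanted into mice, which were then dosed with test compound or vehicle alone. Survival was recorded for each group, and the treated figure was expressed relative to the control figure.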

Question: Which results are given for `COc1cc([C@@H]2c3cc4c(cc3[C@@H](OC3OC5COC(C)OC5C(O)C3O)[C@H]3COC(=O)[C@H]23)OCO4)cc(OC)c1O` (some centres undefined)?
Answer: T/C (endpoint: mean survival time, dose: 32.0 mg/kg/injection, schedule: Q04DX003 (oral), vehicle: Klucel (hydroxypropylcellulose) (HPC)): 109 % of control; T/C (endpoint: mean survival time, dose: 32.0 mg/kg/injection, schedule: Q08DX002 (ip), vehicle: Klucel (hydroxypropylcellulose) (HPC)): 338 % of control; T/C (endpoint: mean survival time, dose: 40.0 mg/kg/injection, schedule: Q03DX003 (ip), vehicle: saline): 562 % of control; T/C (endpoint: mean survival time, dose: 40.0 mg/kg/injection, schedule: Q04DX003 (ip), vehicle: saline): 584 % of control; T/C (endpoint: mean survival time, dose: 50.0 mg/kg/injection, schedule: Q01DX001 (ip), vehicle: Klucel (hydroxypropylcellulose) (HPC)): 276 % of control; T/C (endpoint: mean survival time, dose: 50.0 mg/kg/injection, schedule: Q01DX001 (ip), vehicle: saline): 116 % of control; T/C (endpoint: mean survival time, dose: 60.0 mg/kg/injection, schedule: Q03DX003 (ip), vehicle: saline): 86 % of control; T/C (endpoint: mean survival time, dose: 64.0 mg/kg/injection, schedule: Q01DX001 (oral), vehicle: Klucel (hydroxypropylcellulose) (HPC)): 103 % of control; T/C (endpoint: mean survival time, dose: 64.0 mg/kg/injection, schedule: Q01DX001 (sc), vehicle: clinical formulation): 120 % of control; T/C (endpoint: mean survival time, dose: 64.0 mg/kg/injection, schedule: Q03HX016 (oral), vehicle: Klucel (hydroxypropylcellulose) (HPC)): 108 % of control; T/C (endpoint: mean survival time, dose: 64.0 mg/kg/injection, schedule: Q04DX003 (oral), vehicle: Klucel (hydroxypropylcellulose) (HPC)): 123 % of control; T/C (endpoint: mean survival time, dose: 64.0 mg/kg/injection, schedule: Q08DX002 (ip), vehicle: Klucel (hydroxypropylcellulose) (HPC)): 417 % of control; T/C (endpoint: mean survival time, dose: 100.0 mg/kg/injection, schedule: Q01DX001 (ip), vehicle: Klucel (hydroxypropylcellulose) (HPC)): 448 % of control; T/C (endpoint: mean survival time, dose: 100.0 mg/kg/injection, schedule: Q01DX001 (ip), vehicle: saline): 176 % of control; T/C (endpoint: mean survival time, dose: 128.0 mg/kg/injection, schedule: Q01DX001 (oral), vehicle: Klucel (hydroxypropylcellulose) (HPC)): 104 % of control and 106 % of control; T/C (endpoint: mean survival time, dose: 128.0 mg/kg/injection, schedule: Q01DX001 (oral), vehicle: clinical formulation): 109 % of control; T/C (endpoint: mean survival time, dose: 128.0 mg/kg/injection, schedule: Q03HX016 (oral), vehicle: Klucel (hydroxypropylcellulose) (HPC)): 118 % of control; T/C (endpoint: mean survival time, dose: 128.0 mg/kg/injection, schedule: Q08DX002 (ip), vehicle: Klucel (hydroxypropylcellulose) (HPC)): 119 % of control; T/C (endpoint: mean survival time, dose: 256.0 mg/kg/injection, schedule: Q01DX001 (oral), vehicle: Klucel (hydroxypropylcellulose) (HPC)): 104 % of control and 110 % of control; T/C (endpoint: mean survival time, dose: 256.0 mg/kg/injection, schedule: Q01DX001 (oral), vehicle: clinical formulation): 106 % of control; T/C (endpoint: mean survival time, dose: 256.0 mg/kg/injection, schedule: Q01DX001 (sc), vehicle: Klucel (hydroxypropylcellulose) (HPC)): 166 % of control; T/C (endpoint: mean survival time, dose: 256.0 mg/kg/injection, schedule: Q01DX001 (sc), vehicle: clinical formulation): 188 % of control; T/C (endpoint: mean survival time, dose: 256.0 mg/kg/injection, schedule: Q01DX009 (oral), vehicle: Klucel (hydroxypropylcellulose) (HPC)): 103 % of control; T/C (endpoint: mean survival time, dose: 512.0 mg/kg/injection, schedule: Q01DX001 (oral), vehicle: Klucel (hydroxypropylcellulose) (HPC)): 106 % of control and 118 % of control; T/C (endpoint: mean survival time, dose: 512.0 mg/kg/injection, schedule: Q01DX001 (oral), vehicle: clinical formulation): 165 % of control; T/C (endpoint: mean survival time, dose: 512.0 mg/kg/injection, schedule: Q01DX009 (oral), vehicle: Klucel (hydroxypropylcellulose) (HPC)): 91 % of control; T/C (endpoint: mean survival time, dose: 1024.0 mg/kg/injection, schedule: Q01DX001 (oral), vehicle: Klucel (hydroxypropylcellulose) (HPC)): 111 % of control; T/C (endpoint: median survival time, dose: 2.0 mg/kg/injection, schedule: Q01DX009 (ip), vehicle: saline): 172 % of control; T/C (endpoint: median survival time, dose: 2.0 mg/kg/injection, schedule: Q01DX009 (sc), vehicle: Klucel (hydroxypropylcellulose) (HPC)): 121 % of control; T/C (endpoint: median survival time, dose: 4.0 mg/kg/injection, schedule: Q01DX009 (ip), vehicle: saline): 188 % of control; T/C (endpoint: median survival time, dose: 8.0 mg/kg/injection, schedule: Q01DX009 (ip), vehicle: saline): 611 % of control; T/C (endpoint: median survival time, dose: 8.0 mg/kg/injection, schedule: Q01DX009 (sc), vehicle: Klucel (hydroxypropylcellulose) (HPC)): 168 % of control; T/C (endpoint: median survival time, dose: 16.0 mg/kg/injection, schedule: Q01DX009 (sc), vehicle: Klucel (hydroxypropylcellulose) (HPC)): 110 % of control; T/C (endpoint: median survival time, dose: 32.0 mg/kg/injection, schedule: Q01DX009 (sc), vehicle: Klucel (hydroxypropylcellulose) (HPC)): 89 % of control
